Laboratory results reported in ChEMBL document CHEMBL4715852, “Advances in the Design of Genuine Human Tyrosinase Inhibitors for Targeting Melanogenesis and Related Pigmentations” (J Med Chem, 2020).
Each block holds one compound with its values, some of them ahead of it.

Assays:
Tyrosinase [1] = target: T1, Tyrosinase (Homo sapiens, UniProt P14679); test: Inhibition of human tyrosinase using L- DOPA as substrate by MBTH based assay
T1 sequence (P14679 whole entry): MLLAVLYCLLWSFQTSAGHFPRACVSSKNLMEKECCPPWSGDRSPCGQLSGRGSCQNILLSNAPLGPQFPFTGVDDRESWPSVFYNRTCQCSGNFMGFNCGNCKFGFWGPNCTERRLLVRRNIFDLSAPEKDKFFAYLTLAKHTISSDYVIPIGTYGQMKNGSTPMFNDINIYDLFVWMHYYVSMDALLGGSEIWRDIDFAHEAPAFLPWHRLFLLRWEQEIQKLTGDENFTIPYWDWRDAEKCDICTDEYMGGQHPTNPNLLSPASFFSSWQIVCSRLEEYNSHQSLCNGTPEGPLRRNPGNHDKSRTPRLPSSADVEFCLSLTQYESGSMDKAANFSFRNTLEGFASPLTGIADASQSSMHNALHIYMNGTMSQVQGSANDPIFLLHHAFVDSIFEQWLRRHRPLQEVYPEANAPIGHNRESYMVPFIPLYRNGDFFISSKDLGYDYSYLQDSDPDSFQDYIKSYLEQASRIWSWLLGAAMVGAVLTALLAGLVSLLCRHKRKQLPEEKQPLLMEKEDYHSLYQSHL

Tyrosinase [2] = target: T1, Tyrosinase; test: Inhibition of human tyrosinase expressed in HEK293 cells; format: cell-based
Tyrosinase [3] = target: T1, Tyrosinase; test: Inhibition of tyrosinase in human melanocytes using L-[3,5-3H]-tyrosine as substrate incubated for 1 to 3 days by liquid scintillation counting method; format: cell-based, Melanocyte
Tyrosinase [4] = target: T1, Tyrosinase; test: Inhibition of tyrosinase in neonatal human epidermal melanocytes; parameters: species or system Melanocyte
Tyrosinase [5] = target: T1, Tyrosinase; test: Inhibition of human His-tagged tyrosinase expressed in HEK 293 cells using L-DOPA as substrate by Lineweaver-Burk plot analysis; parameters: species or system HEK293
Mushroom tyrosinase [6] = target: T2, Mushroom tyrosinase (Agaricus bisporus, UniProt O42713+Q00024+C7FF04+C7FF05); test: Inhibition of mushroom tyrosinase
Tyrosinase [7] = target: T1, Tyrosinase; test: Inhibition of human tyrosinase expressed in HEK293 cells using L-tyrosine as substrate and DOPA as cofactor by indirect spectrophotometric method; format: cell-based
Mushroom tyrosinase [8] = target: T2, Mushroom tyrosinase; test: Inhibition of mushroom tyrosinase using L-tyrosine as substrate by spectrophotometric method
Tyrosinase [9] = target: T1, Tyrosinase; test: biochemical
Description: Inhibition of human His-tagged tyrosinase expressed in HEK 293 cells using L-DOPA as substrate by MBTH based assay

Tyrosinase [10] = target: T1, Tyrosinase; test: Inhibition of human HMV-II cell derived tyrosinase using L-DOPA as substrate by light absorbance method; format: cell-based, HMV-2 cell line
Tyrosinase [11] = target: T1, Tyrosinase; test: Inhibition of tyrosinase in human melanocyte cells using L-DOPA as substrate by absorbance method; format: cell-based
Tyrosinase [12] = target: T1, Tyrosinase; test: Inhibition of tyrosinase in human neonatal foreskin epidermal melanocyte cells using L-tyrosine and L-DOPA as substrate preincubated for 2 days followed by cell lysis and subsequent substrate addition and measured after 3 hr by spectrophotometric method; format: cell-based
Tyrosinase [13] = target: T1, Tyrosinase; test: Mixed inhibition of recombinant human tyrosinase expressed in baculovirus infected sf9 cells using L-DOPA as substrate by double-reciprocal plot analysis
Mushroom tyrosinase [14] = target: T2, Mushroom tyrosinase
Description: Competitive inhibition of White button mushroom tyrosinase using L-DOPA as substrate by Lineweaver-Burk plot

Tyrosinase [15] = target: T1, Tyrosinase; test: Inhibition of human tyrosinase expressed in Escherichia coli
Tyrosinase [16] = target: T1, Tyrosinase; test: Inhibition of tyrosinase in human neonatal foreskin epidermal melanocyte cells using L-DOPA as substrate preincubated for 24 hrs followed by cell lysis and subsequent substrate addition and measured after 1 hr by ELISA; format: cell-based
Tyrosinase [17] = target: T1, Tyrosinase; test: Inhibition of human tyrosinase expressed in human SKMEL188 cell lysate using L- DOPA as substrate incubated for 8 hrs; format: subcellular, SK-MEL-188
Tyrosinase [18] = target: T1, Tyrosinase; test: Inhibition of human HMV-II cell derived tyrosinase using DOPA as substrate incubated for 5 mins by light absorbance method; parameters: species or system HMV-2 cell line

IC50 (Tyrosinase [1]): 2.5 µM
SMILES: O=C(Nc1nc(-c2ccc(O)cc2O)cs1)c1ccccc1

Ki (Tyrosinase [1]): 27 µM
SMILES: CCCSCc1cc(=O)c(O)co1

IC50 (Tyrosinase [2]): 40 µM
SMILES: O=C(/C=C/c1ccc(O)cc1)OC1=C(O)[C@@H]([C@H](O)CO)OC1=O

IC50 (Tyrosinase [1]): 3.2 µM
SMILES: CC(=O)Nc1nc(-c2ccc(O)cc2O)cs1

SMILES: CC(C)(C)c1ccc(O)cc1
IC50 (Tyrosinase [3]): 10 µM

IC50 (Tyrosinase [4]): 2 µM
IC50 (Tyrosinase [2]): 2 µM
SMILES: O=C(O)/C=C/c1ccc(O)cc1 [COUMARIC ACID]

Ki (Tyrosinase [5]): 9.1 µM
IC50 (Mushroom tyrosinase [6]): 0.6 µM
SMILES: CCCCc1ccc(O)cc1O [RUCINOL]

IC50 (Tyrosinase [7]): 16 µM
SMILES: O=c1cc(-c2ccc(O)c(O)c2)oc2cc(OS(=O)(=O)O)cc(O)c12

Ki (Tyrosinase [5]): 24 µM
IC50 (Mushroom tyrosinase [8]): 0.3 µM
IC50 (Tyrosinase [9]): 131 µM
SMILES: CC(c1ccccc1)c1ccc(O)cc1O (configuration not stated)

IC50 (Tyrosinase [1]): 1.4 µM
SMILES: CC(C)(C)C(=O)Nc1nc(-c2ccc(O)cc2O)cs1

IC50 (Tyrosinase [4]): 50 µM
SMILES: COc1cc(/C=C/C(=O)NCCc2ccc(O)c(O)c2)ccc1O [N-TRANS-FERULOYLDOPAMINE]

IC50 (Tyrosinase [1]): 1.6 µM
SMILES: O=C(Nc1nc(-c2ccc(O)cc2O)cs1)c1ccc(CO)cc1

Ki (Tyrosinase [1]): 19 µM
SMILES: CCSCc1cc(=O)c(O)co1

Ki (Tyrosinase [1]): 100 µM
SMILES: CCCCn1cc(O)c(=O)cc1C

Ki (Tyrosinase [5]): 39 µM
IC50 (Mushroom tyrosinase [8]): 1.2 µM
IC50 (Tyrosinase [9]): 94 µM
SMILES: CCCCCCc1ccc(O)cc1O [HEXYLRESORCINOL]

IC50 (Tyrosinase [10]): 2.5 µM
SMILES: COC1=CC(=C/C=C/C=C2C=C(OC)C(=O)C(OC)=C2)C=C(OC)C1=O

IC50 (Tyrosinase [2]): 10 µM
SMILES: O=C(/C=C/c1ccc(O)cc1)OC1=C(O)C(=O)O[C@@H]1[C@H](O)CO

IC50 (Tyrosinase [11]): 5 µM
SMILES: COc1cc(/C=C/C(=O)CC(=O)/C=C/c2ccc(O)c(OC)c2)ccc1O [CURCUMIN]

Ki (Tyrosinase [1]): 46 µM
SMILES: CSCc1cc(=O)c(O)co1

IC50 (Tyrosinase [1]): 4.6 µM
SMILES: O=C(Nc1nc(-c2ccc(O)cc2O)cs1)C1CCCCC1

IC50 (Tyrosinase [9]): > 3000 µM
SMILES: Oc1cccc(O)c1 [RESORCINOL]

IC50 (Tyrosinase [1]): 51 µM
SMILES: Nc1nc(-c2ccc(O)cc2O)cs1

IC50 (Tyrosinase [1]): 3.2 µM
SMILES: Oc1ccc(-c2csc(Nc3ncccn3)n2)c(O)c1

IC50 (Tyrosinase [12]): 1 µM
SMILES: C=C1OC(=O)/C(=C\CCCCCCCCCCCCC)[C@H]1O

Ki (Tyrosinase [5]): 0.25 µM
IC50 (Tyrosinase [9]): 1.1 µM
SMILES: CC(C)C(=O)Nc1nc(-c2ccc(O)cc2O)cs1

IC50 (Tyrosinase [12]): 1 µM
SMILES: CCCCCCCCCCCCC/C=C1\C(=O)O[C@@](C)(OC)[C@@H]1O [SUBAMOLIDE A]

Ki (Tyrosinase [1]): 50 µM
SMILES: CC(C)SCc1cc(=O)c(O)co1

Ki (Tyrosinase [13]): 520 µM
Ki (Mushroom tyrosinase [14]): 4.6 µM
SMILES: O=C(O)c1ccccc1 [BENZOIC ACID]

Ki (Tyrosinase [15]): 3.4 µM
SMILES: O=c1oc2ccccc2cc1O [3-HYDROXYCOUMARIN]

IC50 (Tyrosinase [16]): 85 µM
SMILES: COc1cc(/C=C\C(=O)NCCCCNC(=O)/C=C/c2ccc(O)c(OC)c2)ccc1O

IC50 (Mushroom tyrosinase [6]): 0.24 µM
SMILES: COc1ccc(CCCc2ccc(O)cc2O)c(OC)c1C

IC50 (Tyrosinase [1]): 2.6 µM
SMILES: O=C(O)c1ccc(Nc2nc(-c3ccc(O)cc3O)cs2)cc1

IC50 (Tyrosinase [16]): 32 µM
SMILES: O=C(CCc1ccc(O)c(O)c1)c1c(O)cc(O)cc1O

IC50 (Tyrosinase [17]): 2 µM
SMILES: N[C@H](Cc1ccccc1)C(=O)O[C@H]1CC[C@H](c2ccc(O)cc2O)CC1

Ki (Tyrosinase [1]): 46 µM
SMILES: CCCCCSCc1cc(=O)c(O)co1

Ki (Tyrosinase [1]): 75 µM
SMILES: CCCn1cc(O)c(=O)cc1C

IC50 (Tyrosinase [2]): 9 µM
SMILES: Oc1ccc(/C=C/c2cc(O)cc(O)c2)cc1 [RESVERATROL]

IC50 (Tyrosinase [18]): 22 µM
SMILES: Oc1ccc2cc[nH]c2c1

SMILES: O=c1cc(-c2ccc(O)c(O)c2)oc2cc(O)cc(O)c12 [LUTEOLIN]
IC50 (Tyrosinase [7]): 60 µM
